Assay results from patent US20190136321A1, “USE OF TRANSLATIONAL PROFILING TO IDENTIFY TARGET MOLECULES FOR THERAPEUTIC TREATMENT” (The Regents of The University of California, priority 2013, published 2019).
Where two headings read alike, the source gives them in different places.

Key:
V600E-BRAF tumor cells = settings: cited from earlier work
PC3 cells = test: Ribosome profiling and RNA-seq of PC3 cells (translational efficiency, mRNA abundance); assay type: cell-based, human;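 further: mRNA is RNA-seq average read density per codon over the coding sequence, translational efficiency is ribosome footprint over RNA-seq density, scaled so the median gene equals 1.0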
Description: Given the critical role for mTOR in prostate cancer, PC3 human prostate cancer cells, in which mTOR is constitutively hyperactivated, were used to delineate translationally controlled gene expression networks upon complete or partial mTOR inhibition. Ribosome profiling was optimized to assess quantitatively ribosome occupancy genome-wide in cancer cells.
Cells were subsequently treated with cycloheximide (100 μg ml^−1) and detergent lysis was performed in the dish. The lysate was treated with DNase and clarified, and a sample was taken for RNA-seq analysis. Lysates were subjected to ribosome footprinting by nuclease treatment. Ribosome-protected fragments were purified, and deep sequencing libraries were generated from these fragments, as well as from poly(A) mRNA purified from non-nuclease-treated lysates.
Ribosome footprint and RNA-seq sequencing reads were aligned against a library of transcripts from the UCSC Known Genes database GRCh37/hg19. The first 25 nucleotides of each read were aligned using Bowtie and this initial alignment was then extended to encompass the full fragment-derived portion of the sequencing read while excluding the linker sequence. Read density profiles were then constructed for the canonical transcript of each gene, using only reads with 0 or 1 total mismatches between the read sequence and the reference sequence, comprised of the transcript fragment followed by the linker sequence. Footprint reads were assigned to an A site nucleotide at position +15 to +17 of the alignment, based on the total fragment length; mRNA reads were assigned to the first nucleotide of the alignment. The average read density per codon was then computed for the coding sequence of each transcript, excluding the first 15 and last 5 codons, which can display atypical ribosome accumulation.
Average read density was used as a measure of mRNA abundance (RNA-seq reads) and of protein synthesis (ribosome profiling reads). For most analyses, genes were filtered to require at least 256 reads in the relevant RNA-seq samples. Translational efficiency was computed as the ratio of ribosome footprint read density to RNA-seq read density, scaled to normalize the translational efficiency of the median gene to 1.0 after excluding regulated genes (log2 fold-change ±1.5 after normalizing for the all-gene median). Changes in protein synthesis, mRNA abundance and translational efficiency were similarly computed as the ratio of read densities between different samples, normalized to give the median gene a ratio of 1.0. This normalization corrects for differences in the absolute number of sequencing reads obtained for different libraries.

Compound: O=C(NOC[C@H](O)CO)c1ccc(F)c(F)c1Nc1ccc(I)cc1F [PD0325901]
- PNAS rna (V600E-BRAF tumor cells; gene ALF/GTF2A1L): 2.7 log2 MEKi/DMSO
- PNAS rna (V600E-BRAF tumor cells; gene ARID5A): −1.7 log2 MEKi/DMSO
- PNAS rna (V600E-BRAF tumor cells; gene B4GALT6): −1.7 log2 MEKi/DMSO
- PNAS rna (V600E-BRAF tumor cells; gene BXDC2/BRIX1): −1.2 log2 MEKi/DMSO
- PNAS rna (V600E-BRAF tumor cells; gene BYSL): −1.2 log2 MEKi/DMSO
- PNAS rna (V600E-BRAF tumor cells; gene CCND1): −2.2 log2 MEKi/DMSO
- PNAS rna (V600E-BRAF tumor cells; gene CD3EAP): −1.4 log2 MEKi/DMSO
- PNAS rna (V600E-BRAF tumor cells; gene CHSY1): −1.3 log2 MEKi/DMSO
- PNAS rna (V600E-BRAF tumor cells; gene DDX21): −1.1 log2 MEKi/DMSO
- PNAS rna (V600E-BRAF tumor cells; gene DUSP4): −2.2 log2 MEKi/DMSO
- PNAS rna (V600E-BRAF tumor cells; gene DUSP6): −2.6 log2 MEKi/DMSO
- PNAS rna (V600E-BRAF tumor cells; gene EGR1): −2.1 log2 MEKi/DMSO
- PNAS rna (V600E-BRAF tumor cells; gene ELOVL6): −1.5 log2 MEKi/DMSO
- PNAS rna (V600E-BRAF tumor cells; gene ETV1): −2.6 log2 MEKi/DMSO
- PNAS rna (V600E-BRAF tumor cells; gene ETV4): −2.2 log2 MEKi/DMSO
- PNAS rna (V600E-BRAF tumor cells; gene ETV5): −1.7 log2 MEKi/DMSO
- PNAS rna (V600E-BRAF tumor cells; gene FLJ10534/TSR1): −1.1 log2 MEKi/DMSO
- PNAS rna (V600E-BRAF tumor cells; gene FOS): −3.4 log2 MEKi/DMSO
- PNAS rna (V600E-BRAF tumor cells; gene FOSL1): −4.2 log2 MEKi/DMSO
- PNAS rna (V600E-BRAF tumor cells; gene GEMIN4): −1.2 log2 MEKi/DMSO
- PNAS rna (V600E-BRAF tumor cells; gene GNL3): −1.0 log2 MEKi/DMSO
- PNAS rna (V600E-BRAF tumor cells; gene GPR3): −2.1 log2 MEKi/DMSO
- PNAS rna (V600E-BRAF tumor cells; gene GTPBP4): −1.1 log2 MEKi/DMSO
- PNAS rna (V600E-BRAF tumor cells; gene HMGA2): −1.6 log2 MEKi/DMSO
- PNAS rna (V600E-BRAF tumor cells; gene HSPC111/NOP16): −1.3 log2 MEKi/DMSO
- PNAS rna (V600E-BRAF tumor cells; gene HYDIN): 2.1 log2 MEKi/DMSO
- PNAS rna (V600E-BRAF tumor cells; gene IER3): −3.3 log2 MEKi/DMSO
- PNAS rna (V600E-BRAF tumor cells; gene IL8): −2.5 log2 MEKi/DMSO
- PNAS rna (V600E-BRAF tumor cells; gene KIR3DL2): 1.7 log2 MEKi/DMSO
- PNAS rna (V600E-BRAF tumor cells; gene LIF): −3.2 log2 MEKi/DMSO
- PNAS rna (V600E-BRAF tumor cells; gene LNK/SH2B3): −2.0 log2 MEKi/DMSO
- PNAS rna (V600E-BRAF tumor cells; gene MAFF): −2.7 log2 MEKi/DMSO
- PNAS rna (V600E-BRAF tumor cells; gene MAP2K3): −1.5 log2 MEKi/DMSO
- PNAS rna (V600E-BRAF tumor cells; gene MYC): −2.4 log2 MEKi/DMSO
- PNAS rna (V600E-BRAF tumor cells; gene PHLDA2): −2.2 log2 MEKi/DMSO
- PNAS rna (V600E-BRAF tumor cells; gene PLK3): −2.3 log2 MEKi/DMSO
- PNAS rna (V600E-BRAF tumor cells; gene POLR1C): −1.0 log2 MEKi/DMSO
- PNAS rna (V600E-BRAF tumor cells; gene POLR3G): −1.0 log2 MEKi/DMSO
- PNAS rna (V600E-BRAF tumor cells; gene PPAN): −1.2 log2 MEKi/DMSO
- PNAS rna (V600E-BRAF tumor cells; gene PPAT): −1.1 log2 MEKi/DMSO
- PNAS rna (V600E-BRAF tumor cells; gene PYCRL): −2.6 log2 MEKi/DMSO
- PNAS rna (V600E-BRAF tumor cells; gene RRS1): −1.8 log2 MEKi/DMSO
- PNAS rna (V600E-BRAF tumor cells; gene SEMA6A): 2.1 log2 MEKi/DMSO
- PNAS rna (V600E-BRAF tumor cells; gene SLC1A5): −1.2 log2 MEKi/DMSO
- PNAS rna (V600E-BRAF tumor cells; gene SLC4A7): −1.6 log2 MEKi/DMSO
- PNAS rna (V600E-BRAF tumor cells; gene SPRED2): −1.0 log2 MEKi/DMSO
- PNAS rna (V600E-BRAF tumor cells; gene SPRY2): −4.0 log2 MEKi/DMSO
- PNAS rna (V600E-BRAF tumor cells; gene SPRY4): −2.6 log2 MEKi/DMSO
- PNAS rna (V600E-BRAF tumor cells; gene TNC): −2.5 log2 MEKi/DMSO
- PNAS rna (V600E-BRAF tumor cells; gene TNFRSF12A): −1.5 log2 MEKi/DMSO
- PNAS rna (V600E-BRAF tumor cells; gene WDR3): −1.1 log2 MEKi/DMSO
- PNAS rna (V600E-BRAF tumor cells; gene YRDC): −1.2 log2 MEKi/DMSO

Compound: CO[C@H]1C[C@@H]2CC[C@@H](C)[C@@](O)(O2)C(=O)C(=O)N2CCCC[C@H]2C(=O)O[C@H]([C@H](C)C[C@@H]2CC[C@@H](O)[C@H](OC)C2)CC(=O)[C@H](C)/C=C(\C)[C@@H](O)[C@@H](OC)C(=O)[C@H](C)C[C@H](C)/C=C/C=C/C=C/1C [rapamycin]
- TrlEff (PC3 cells; gene ACTG1): −0.07
- mRNA (PC3 cells; gene ACTG1): 0.02
- mRNA (PC3 cells; gene AGRN): 0.01
- mRNA (PC3 cells; gene AHCY): 0.20
- mRNA (PC3 cells; gene ALKBH7): 0.06
- TrlEff (PC3 cells; gene AP2A1): −0.04
- mRNA (PC3 cells; gene AP2A1): 0.09
- TrlEff (PC3 cells; gene ARD1A): 0.01
- mRNA (PC3 cells; gene ARD1A): −0.04
- TrlEff (PC3 cells; gene C21orf66): −0.09
- mRNA (PC3 cells; gene C21orf66): −0.30
- TrlEff (PC3 cells; gene CIRBP): 0.10
- mRNA (PC3 cells; gene CLPTM1): 0.07
- mRNA (PC3 cells; gene COL6A2): −0.08
- mRNA (PC3 cells; gene ECSIT): −0.04
- TrlEff (PC3 cells; gene EEF1A2): −0.03
- mRNA (PC3 cells; gene EEF1A2): 0.03
- TrlEff (PC3 cells; gene EVPL): 0.30
- mRNA (PC3 cells; gene EVPL): −0.08
- mRNA (PC3 cells; gene FAM128B): 0.06
- mRNA (PC3 cells; gene IPO7): 0.20
- TrlEff (PC3 cells; gene MTA1): −0.05
- mRNA (PC3 cells; gene MTA1): 0.00
- mRNA (PC3 cells; gene NCLN): −0.05
- TrlEff (PC3 cells; gene PABPC4): −0.80
- TrlEff (PC3 cells; gene PACS1): 0.04
- mRNA (PC3 cells; gene PACS1): 0.07
- TrlEff (PC3 cells; gene PGLS): 0.20
- mRNA (PC3 cells; gene PGLS): 0.03
- mRNA (PC3 cells; gene PGM1): 0.40
- mRNA (PC3 cells; gene RABGGTB): −0.20
- mRNA (PC3 cells; gene RPL6): 0.09
- TrlEff (PC3 cells; gene RPL8): −0.40
- TrlEff (PC3 cells; gene RPL9): −1.00
- mRNA (PC3 cells; gene RPL10): 0.09
- mRNA (PC3 cells; gene RPL11): 0.09
- mRNA (PC3 cells; gene RPL12): 0.07
- mRNA (PC3 cells; gene RPL14): 0.07
- mRNA (PC3 cells; gene RPL17): 0.05
- mRNA (PC3 cells; gene RPL18): 0.08
- mRNA (PC3 cells; gene RPL22): 0.08
- mRNA (PC3 cells; gene RPL23): 0.09
- mRNA (PC3 cells; gene RPL27): 0.05
- mRNA (PC3 cells; gene RPL27A): 0.06
- TrlEff (PC3 cells; gene RPL29): −0.50
- mRNA (PC3 cells; gene RPL29): 0.10
- mRNA (PC3 cells; gene RPL31): −0.02
- mRNA (PC3 cells; gene RPL36): 0.09
- mRNA (PC3 cells; gene RPL37A): 0.08
- mRNA (PC3 cells; gene RPL41): 0.04
- mRNA (PC3 cells; gene RPS2): 0.07
- mRNA (PC3 cells; gene RPS8): 0.09
- TrlEff (PC3 cells; gene RPS9): −0.60
- mRNA (PC3 cells; gene RPS9): 0.10
- mRNA (PC3 cells; gene RPS13): 0.07
- TrlEff (PC3 cells; gene RPS14): −0.60
- mRNA (PC3 cells; gene RPS14): 0.10
- TrlEff (PC3 cells; gene RPS15): 0.03
- mRNA (PC3 cells; gene RPS15): −0.01
- mRNA (PC3 cells; gene RPS15A): 0.07
- TrlEff (PC3 cells; gene RPS21): −0.60
- mRNA (PC3 cells; gene RPS21): −0.01
- mRNA (PC3 cells; gene RPS25): 0.04
- mRNA (PC3 cells; gene RPS27): 0.10
- TrlEff (PC3 cells; gene RPS28): −0.80
- mRNA (PC3 cells; gene RPS28): 0.01
- mRNA (PC3 cells; gene RPS29): −0.01
- TrlEff (PC3 cells; gene SLC25A5): −0.30
- mRNA (PC3 cells; gene TKT): 0.02
- TrlEff (PC3 cells; gene VIM): −0.40
